For 16 compounds, IC50 results are on record in patent publication EP3925667A1, “SELECTIVE TMPRSS2 INHIBITORS AND MEDICAL USE THEREOF” (priority 2020, dated 2021).

Experiment [1] concerns the target T1, TMPRSS2 (Homo sapiens, UniProt O15393). The experiment can be described thus: TMPRSS2 inhibition, IC50 (Table 1). Format: biochemical. To be noted: nonlinear regression, variable slope (four parameters).
Experiment [2] has as its target T2, Recomb. Human Thrombin (Homo sapiens, UniProt P00734).
T2 construct: purchased R&D systems 1473-SE-010
The experiment can be described thus: Protease Thrombin inhibition assay, chromogenic substrate D-Phe-Homopro-Arg-pNA. The format is biochemical. The conditions noted are these: 30 minutes preincubation at room temperature, 100 µM reference substrate, absorption 405 nm, 25°C. On the procedure:
(§1) Protease Thrombin inhibiton assay - Calculation of IC50 values
Protease: Recomb. Human Thrombin, Bought 30.01.2020; Art. 1473-SE-010; Company: R&D systems Reference substrate: D-Phe-Homopro-Arg-pNA; Company: Bachem; Art no.: 4008145.0050
• Reconstitute at 100 µg/ml (1428.57 nM) in sterile 50 mM HEPES and 640 mM NaCl • Diluted to a stock solution c = 0.04 µg/µl with TNC buffer
(§2) • Dilute and aliquote 2.1 mg of reference substrate to a concentration of c = 2000 µM in TNC. Dilute and aliquote further to a concentration of c = 200 µM in TNC buffer. Endconcentration in well: c = 100 µM.
(§3) • Inhibitor was diluted with pure DMSO to a concentration of 10 mM • This 10 mM stock solution was further diluted:
(§4) • 25 mM Tris, 150 mM NaCl, 5 mM CaCl2, 0,01% Triton X-100, pH = 8 (stored at 8°C)
(§5) • Total volume per well: 100µl • Temperature: 25°C • Kinetic interval: every 2 minutes • Absorption: 405 nm • Number of flashes: 25 • Shaking before measurememt: 3s • Shaking amplitude: 5 mm
(§6) • Per well: add 50 µl of Thrombin/TNC solution (c = 0.04 µg/µl), add 1 µl of inhibitor. • Incubate for 30 minutes at room temperature • After incubation, add […] of c = 200 µM reference substrate Endconcentration of substances per well: c = 100 µM of reference substrate, c = 0.002 µg of […] solution, 1% DMSO
(§7) • Graph pad prism 7 was used to analyze the data. The velocity (change of absorbance over time) was plotted against the concentration. A non linear regression was performed with the following equation: [inhibitor] vs. response - Variable slope (four parameters)

Experiment [3] has as its target T3, Recomb. Human Coag. Factor Xa protein (Homo sapiens, UniProt P00742).
T3 construct: purchased Bio-Techne GmbH 1063-SE-010
The experiment can be described thus: Protease Factor Xa inhibition assay, chromogenic substrate Bz-Ile-Glu-Gly-Arg-pNA. Format: biochemical. To be noted: 0.35 nM Factor Xa, 200 µM reference substrate, 30 minutes preincubation, absorption 405 nm, 25°C. How it is done:
(§8) Protease Factor Xa inhibiton assay - Calculation of IC50 values
(§9) Recomb. Human Coag. Factor Xa protein, CF: Bought 09.12.2020; Art. 1063-SE-010; Company: Bio-Techne GmbH
(§10) • Reconstitute at 100 µg/ml in sterile 25 mM MES, 150 mM NaCl, 5 mM CaCl2, pH6 • Diluted to a stock solution of 1000 nM with TNC buffer • This stock solution was further diluted with TNC buffer to a concentration of 35 nM and aliquoted. Stored at -20°C. Endconcentration in well: c = 0.35 nM
• Delivered: 5mg. Dilute and aliquote reference substrate to a concentration of 10 mM in pure DMSO. Endconcentration in well: c = 200 µM (= KM for Factor Xa)
as §3, §4, §5
(§11) • Per well: add 97 µl TNC buffer, add 1 µl of c = 35 nM solution of Factor Xa, add 1 µl of inhibitor • Incubate for 30 minutes at room temperature • After incubation, add 1 µl of c = 10 mM reference substrate Endconcentration of substances per well: c = 200 µM of reference substrate, c = 0.35 nM of Factor Xa solution, 2% DMSO
(§12) Graph pad prism 7 was used to analyze the data. The velocity (change of absorbance over time) was plotted against the concentration. A non linear regression was performed with the following equation: [inhibitor] vs. response - Variable slope (four parameters) Table 1. IC50 values of inventive inhibitors with respect to TMPRSS2, thrombin and Factor Xa

The subject of experiment [4] is pseudotyped particle LV(Luc)-CoV2 in CaCo-2 cells. The conditions noted are these: 2 h.
In experiment [5] the target is T1, TMPRSS2. The experiment can be described thus: TMPRSS2 inhibition, IC50 (Table 1). The conditions noted are these: nonlinear regression, variable slope (four parameters). The format is biochemical. From the text: Inhibitors were screened against TMPRSS2, thrombin and factor Xa.
The source holds these as a separate data set.

In experiment [6] the target is T3, Recomb. Human Coag. Factor Xa protein. The experiment can be described thus: Protease Factor Xa inhibition assay, chromogenic substrate Bz-Ile-Glu-Gly-Arg-pNA. The format is biochemical. To be noted: 0.35 nM Factor Xa, 200 µM reference substrate, 30 minutes preincubation, absorption 405 nm, 25°C. On the procedure: as §8, §9, §10
• Delivered: 5mg. Dilute and aliquote reference substrate to a concentration of 10 mM in pure DMSO.
as §3, §4, §5, §11, §12
The source holds these as a separate data set.

The test system of experiment [7] is pseudotyped particle LV(Luc)-CoV2 in CaCo-2 cells. Description: microbe, parasite or virus in culture. Format: cell-based, SARS-CoV2. To be noted: Severe acute respiratory syndrome coronavirus 2, 2 h incubation with inhibitor before transduction, luciferase activity at 48 h post transduction.
In experiment [8] the test system is SARS-CoV2 WT. To be noted: 2 h.
For experiment [9], the target named is T2, Recomb. Human Thrombin. Description: Protease Thrombin inhibition assay, chromogenic substrate D-Phe-Homopro-Arg-pNA. Format: biochemical. On the procedure: as §1, §2, §3, §4, §6, §7
Experiment [10] has as its system SARS-CoV2 WT. Description: microbe, parasite or virus in culture. The format is cell-based. The conditions noted are these: Severe acute respiratory syndrome coronavirus 2.

Where a name gives a salt, the structure may show the parent alone. Read-outs that look alike come from different tables or passages of the source.

T1 sequence (O15393 whole entry): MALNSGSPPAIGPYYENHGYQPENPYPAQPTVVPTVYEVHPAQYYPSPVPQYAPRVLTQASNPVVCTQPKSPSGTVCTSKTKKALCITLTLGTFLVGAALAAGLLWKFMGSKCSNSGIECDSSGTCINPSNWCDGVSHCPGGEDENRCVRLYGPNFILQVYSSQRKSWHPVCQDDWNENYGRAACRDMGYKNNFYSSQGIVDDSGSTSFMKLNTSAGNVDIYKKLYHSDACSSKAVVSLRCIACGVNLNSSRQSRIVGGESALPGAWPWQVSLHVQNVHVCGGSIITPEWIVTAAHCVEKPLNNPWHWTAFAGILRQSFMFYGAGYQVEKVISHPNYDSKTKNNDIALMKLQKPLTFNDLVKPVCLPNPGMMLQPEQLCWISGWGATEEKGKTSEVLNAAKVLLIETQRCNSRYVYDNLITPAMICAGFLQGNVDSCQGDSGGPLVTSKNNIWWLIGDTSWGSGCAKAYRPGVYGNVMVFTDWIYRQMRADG
T3 sequence (P00742 235-488 limits assumed): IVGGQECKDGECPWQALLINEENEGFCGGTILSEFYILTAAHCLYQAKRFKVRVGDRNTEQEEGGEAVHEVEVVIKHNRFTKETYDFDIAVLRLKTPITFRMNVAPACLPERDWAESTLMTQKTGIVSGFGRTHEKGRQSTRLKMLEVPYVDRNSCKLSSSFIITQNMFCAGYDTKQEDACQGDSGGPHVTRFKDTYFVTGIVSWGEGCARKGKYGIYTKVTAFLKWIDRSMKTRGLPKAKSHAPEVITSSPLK
T3 sequence (P00742 41-179 partner limits assumed): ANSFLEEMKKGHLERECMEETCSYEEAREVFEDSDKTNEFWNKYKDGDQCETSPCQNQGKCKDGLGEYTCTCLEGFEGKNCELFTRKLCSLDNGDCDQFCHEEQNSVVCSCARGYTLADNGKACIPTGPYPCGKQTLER

Take `CC(=O)N[C@@H](CCC(=O)O)C(=O)N[C@@H](CCC(N)=O)C(=O)N1CCC[C@H]1C(=O)N[C@@H](CCCNC(=N)N)C(=O)c1nc2ccccc2s1` [Compound 5, Ac-EQPR-kbt]: the IC50 (commonly the point on the concentration scale where inhibition reaches its midpoint) at TMPRSS2 [1] is 2870 nM; against Recomb. Human Thrombin [2], above 100 µM; in experiment [3], above 100000 nM; in experiment [4] it was 2100 nM.

For `N=C(N)c1ccccc1` [Ref.4, Benzamidine], the IC50 is above 100 µM on TMPRSS2 [5], above 100 µM in experiment [6] and above 1000 µM in [7].

Take `CC(=O)N[C@@H](CCCNC(=N)N)C(=O)N[C@@H](CCC(=O)O)C(=O)N[C@@H](CS)C(=O)N[C@@H](CCCNC(=N)N)C(=O)c1nc2ccccc2s1` [Compound 7, Ac-RECR-kbt]: the half-inhibitory concentration (IC50) at TMPRSS2 [1] was 835 nM; against Recomb. Human Thrombin [2], above 100 µM; in [3] it was 611 nM.

Turning to `CC(=O)N[C@@H](CCCNC(=N)N)C(=O)N[C@@H](CCC(N)=O)C(=O)N[C@@H](CC(C)C)C(=O)N[C@@H](CCCNC(=N)N)C(=O)c1nc2ccccc2s1` [Compound 1, Ac-RQLR-kbt], the half-inhibitory concentration (IC50) is 1260 nM against TMPRSS2 [1]; above 100 µM on Recomb. Human Thrombin [2]; 47.1 nM in [3]; 804 nM in experiment [4]; 11.1 µM in the experiment with SARS-CoV2 WT [8].

In turn, `N=C(N)c1ccc(CNC(=O)[C@@H]2CCN2C(=O)[C@H](NCC(=O)O)C2CCCCC2)cc1` [Ref.7, Melagatran] showed an IC50 in experiment [6] of 0.216 µM.

In the case of `CC(=O)N[C@@H](C)C(=O)N[C@@H](CCC(=O)O)C(=O)N[C@@H](CCC(N)=O)C(=O)N[C@@H](CCCNC(=N)N)C(=O)c1nc2ccccc2s1` [Compound 2, Ac-AEQR-kbt], the IC50 against TMPRSS2 [1] is 1670 nM; against Recomb. Human Thrombin [2], above 100 µM; in experiment [3], 991 nM; in experiment [4] it was 470 nM; with SARS-CoV2 WT [8], 19 µM.

`CC(=O)N[C@@H](CCCCN)C(=O)N[C@@H](CCC(N)=O)C(=O)N[C@@H](CC(C)C)C(=O)N[C@@H](CCCNC(=N)N)C(=O)c1nc2ccccc2s1` [Ref.1, Ac-KQLR-kbt, reference compound]: the IC50 was 3430 nM against TMPRSS2 [1]; above 100 µM against Recomb. Human Thrombin [2]; 338 nM in experiment [3]; 3010 nM in experiment [4]; 15.6 µM in the experiment on SARS-CoV2 WT [8].

As for `CC(=O)N[C@@H](CC(C)C)C(=O)N[C@@H](CC(C)C)C(=O)N[C@H](C=O)CCCNC(=N)N` [Ref.3, Leupeptin], the IC50 was above 27.6 µM at TMPRSS2 [5], above 100 µM against Recomb. Human Thrombin [9], above 13.9 µM in experiment [6] and 36.8 µM in [7].

For `CC(=O)N[C@@H](CCC(N)=O)C(=O)N[C@@H](CCC(N)=O)C(=O)N[C@H](C(=O)N[C@@H](CCCNC(=N)N)C(=O)c1nc2ccccc2s1)C(C)C` [Compound 4, Ac-QQVR-kbt], the IC50 against TMPRSS2 [1] was 500 nM; against Recomb. Human Thrombin [2], above 10 µM; in experiment [3], 1500 nM; in experiment [4], 2050 nM; in the experiment with SARS-CoV2 WT [8] it was 58.5 µM.

On to `[H]/N=C(/N)c1ccc(NCc2nc3cc(C(=O)N(CCC(=O)O)c4ccccn4)ccc3n2C)cc1` [Ref.2, Dabigatran], for which the IC50 at TMPRSS2 [5] was above 100 µM.

For the compound `CC[C@H](C)[C@H](NC(=O)[C@H](C)NC(=O)[C@H](CCC(=O)O)NC(=O)[C@H](CCC(=O)O)NC(=O)[C@H](CC(C)C)NC(=O)[C@H](CCCCN)NC(=O)[C@H](CCCCN)NC(=O)[C@H](CCSC)NC(=O)[C@H](CCC(=O)O)NC(=O)[C@H](Cc1ccc(O)cc1)NC(=O)[C@H](CCC(=O)O)NC(=O)[C@H](CC(C)C)NC(=O)[C@H](CC(=O)O)NC(=O)[C@H](CC(C)C)NC(=O)[C@H](Cc1ccccc1)NC(=O)[C@@H](NC(=O)[C@@H](NC(=O)[C@H](CC(N)=O)NC(=O)[C@@H](NC(=O)[C@H](CCC(N)=O)NC(=O)[C@H](CC(=O)O)NC(=O)[C@H](CC(C)C)NC(=O)[C@@H](N)CO)[C@@H](C)CC)C(C)C)[C@@H](C)O)C(=O)N[C@@H](CCCCN)C(=O)N[C@@H](CCCCN)C(=O)N[C@@H](CC(C)C)C(=O)N[C@@H](CCC(=O)O)C(=O)N[C@@H](CCC(=O)O)C(=O)N[C@@H](CO)C(=O)N[C@@H](Cc1ccc(O)cc1)C(=O)N[C@H](C(=O)N[C@@H](CC(=O)O)C(=O)N[C@@H](CC(C)C)C(=O)N[C@@H](CCCCN)C(=O)N[C@@H](CCC(=O)O)C(=O)N[C@@H](CC(C)C)C(=O)O)[C@@H](C)CC` [Ref.9, EK1, reference compound], the IC50 in [4] amounted to 228 nM.

Regarding `CN(C)C(=O)COC(=O)Cc1ccc(OC(=O)c2ccc(NC(=N)N)cc2)cc1` [Ref.5, Camostat mesylate], the results for the IC50 (in experiment [6]; in [7]; with SARS-CoV2 WT [10]) were 5.3 µM, 0.505 µM and 32.4 µM, respectively.

As for `CC(=O)N[C@@H](CC(N)=O)C(=O)N[C@@H](CCC(=O)O)C(=O)N[C@@H](CCC(N)=O)C(=O)N[C@@H](CCCNC(=N)N)C(=O)c1nc2ccccc2s1` [Compound 6, Ac-NEQR-kbt], the IC50 at TMPRSS2 [1] is 1190 nM; at Recomb. Human Thrombin [2], above 100 µM; in experiment [3] it was 8140 nM; in [4], 1400 nM; in the experiment on SARS-CoV2 WT [8], 34.2 µM.

Turning to `N=C(N)NCCC[C@H](NC(=O)[C@@H]1CCCN1C(=O)[C@H](N)Cc1ccccc1)C(=O)CCl` [Ref.6, PPack], the IC50 is above 100 µM on TMPRSS2 [5], 0.000268 µM against Recomb. Human Thrombin [9] and 0.0745 µM in experiment [6].

With `CC(=O)NCC(=O)N[C@@H](CCC(N)=O)C(=O)N[C@@H](CCCNC(=N)N)C(=O)N[C@@H](CCCNC(=N)N)C(=O)c1nc2ccccc2s1` [Compound 3, Ac-GQRR-kbt], the IC50 was 332 nM on TMPRSS2 [1]; above 100 µM against Recomb. Human Thrombin [2]; 22000 nM in experiment [3]; 1300 nM in [4]; 20.1 µM with SARS-CoV2 WT [8].

With `N=C(N)Nc1ccc(C(=O)Oc2ccc(CC(=O)O)cc2)cc1` [Ref.8, FOY 251], the IC50 was above 100 µM at Recomb. Human Thrombin [9] and 21.5 µM in experiment [6].
